One compound from patent US20160296438A1, “PROTECTIVE ACTION OF LUTEIN AGAINST BLUE LIGHT ON HUMAN SKIN CELL LINES” (Kemin Industries, Inc., priority 2015, published 2016) can be followed below.

Data set [1] deals with human dermal fibroblasts (HDF) cells. As to the kind of experiment: Blue light shielding study with lutein, cell viability/proliferation by MTS assay. Particulars: lutein solution in DMSO at 50, 100 and 200 ppm as shield plate on top, blue LED 476 nm, 9 hours, p<0.05, FIG. 3. Type of data set: cell-based. The method, then:
(§1) Cell culture studies. All the cell culture studies were performed using HEK cells [HEK001 (ATCC® CRL-2404™) lot #61331463] continuous cell lines and Human Skin Fibroblast (HDF) [CCD1093Sk (ATCC® CRL2115™) lot #3296816] cell lines [ATCC, Manassas, Va.].
(§2) The growth medium used for HEK cells was prepared according to ATCC guidelines. Growth media consisting of keratinocyte serum free medium (GIBCO-BRL 17005042, lot #1638561) with 5 ng/mL human recombinant epidermal growth factor (EGF) (ATCC, lot # 1584416) and 2 mM L-glutamine (ATCC, lot #62195752) (without bovine pituitary extract and serum) and supplemented with penicillin (10000 units) and streptomycin (10 mg/mL) solution (Gibco, lot #1469707). The growth medium used for HDF cells consisting of eagle's Minimum Essential Medium (EMEM) (ATCC-302003, lot #62028896) with 10% FBS and supplemented with penicillin (10000 units) and streptomycin (10 mg/mL) solution. Cells were grown in cell culture flasks (75 cm^2) [Fisher Scientific, catalog number 10-126-37] to approximately 80% confluence in 5% CO2 environment incubator (NuAire, MN) maintained at 37° C. Confluent cells were passed into subsequent cultures by trypsinization following neutralization and centrifugation. […]
(§3) MTS assay. […] After incubation the absorbance at 490 nm was recorded using microplate Reader (SpectraMax® Me5, Molecular Devices, LLC. Sunnyvale, Calif.). […]

Data set [2] deals with human epidermal keratinocytes (HEK) cells. The description is as above. Particulars: lutein solution in DMSO at 50, 100 and 200 ppm as shield plate on top, blue LED 476 nm, 9 hours, p<0.05, FIG. 2. Type of data set: cell-based. The method, then: as §1, §2, §3
The subject of data set [3] is human dermal fibroblasts (HDF) cells. The data set can be described thus: Intracellular reactive oxygen species (ROS) assay (DCFH-DA) under blue light. Type of data set: cell-based. As to conditions: lutein at 50, 100 and 200 ppm, blue LED 476 nm, 9 hours, FIG. 6. The method, then:
(§4) Reactive Oxygen Species (ROS) assay. ROS activity was measured using Oxiselect™ intracellular ROS assay kit (Cell BioLabs, San Diego, Calif., catalogue number STA 342, lot #59342025). The cells were seeded into 96-well microplates at a density of 100,000 cells/mL (200 μL). Both the cell lines were treated with cell permeable fluorogenic probe 2′, 7′-dichlorodihydrofluorescin diacetate (DCFH-DA). Cells were washed with D-PBS for couple of times and treated with lutein at different concentrations and exposed to blue LED lights (476 nm) for 9 hours (Cells that were not treated with lutein will serve as blue light control). Cells treated with pure DMSO serves as a control for DMSO effect in presence and absence of blue light. […] After 5 minutes incubation, 150 μL of this medium was transferred to a black wall 96-well plate and fluorescence was measured. […] Intracellular reactive oxygen species (ROS) activity and the oxidative stress was measured using Oxiselect™ intracellular ROS assay kit which can measure hydroxyl, peroxyl and other free radical in the cells. […] DCFH will be rapidly oxidized to fluorescent […] (DCF-green fluorescence) in presence of reactive oxygen species. The fluorescence intensity is proportional to the ROS levels within the cell cytosol. […]

Data set [4] concerns human epidermal keratinocytes (HEK) cells. The description is as above. Type of data set: cell-based. Particulars: lutein at 50, 100 and 200 ppm, blue LED 476 nm, 9 hours, FIG. 5. The method, then: as §4
A short description of data set [5]: Solubility of lutein in cell culture media and DMSO. Type of data set: physicochemical. The method, then: FloraGLO™ Lutein (production number M080033, lot number 1405102477, manufactured date Jun. 04, 2014) was solubilized in sterile dimethyl sulfoxide (DMSO) [ATCC, lot #61908420] with intermittent shaking for at least 6 hours to get a stock of 2 mg/mL solution. From the stock; 2.5, 5 and 10 μl of the lutein solution was added to wells containing 100 μl media to get a final lutein concentration of 50, 100 and 200 ppm in corresponding wells. Hydrogen peroxide (H2O2) [Sigma, lot #WKBS8306V] solution at 1 mM was served as a positive control in all the studies. Pure DMSO at 2.5, 5 and 10 μl was added to few wells to have the DMSO control.
FloraGLO™ Lutein was solubilized in DMSO and applied to cell cultures. […] In our earlier attempts for cell viability assays with various detection mechanisms, this high concentrations of DMSO might be interacting with cell culture membranes and causing a reduction in cell proliferation and decrease in cell viability compared to controls.

Entries after “also recorded” stand apart in the source; their conditions may differ.

For `CC1=C[C@H](O)CC(C)(C)[C@H]1/C=C/C(C)=C/C=C/C(C)=C/C=C/C=C(C)/C=C/C=C(C)/C=C/C1=C(C)C[C@@H](O)CC1(C)C` [lutein], the “cell proliferation (% cell viability) compared to blue light control” value in data set [1] and in data set [2] was “significantly improved; also recorded: shielded the blue light effectively” throughout. Also, the “fluorescence signal (DCF, generation of ROS) on blue light exposure” value was “low and prevent the generation of reactive oxygen species” in data set [3]; “low and prevent the generation of reactive oxygen species” in data set [4]. Besides, the “solubility in DMSO” value in data set [5] (DMSO) is given as “limited solubility”. In data set [5] (cell culture compatible media), the “solubility in cell culture compatible media” value was “does not dissolve”.
